The supplement of paper PMC10307832

Key:
Experiment in all cases: relative viability (nuclei count vs DMSO), 5 days (fraction); higher = more cells survive
[1] = compound: CCn1c(-c2nonc2N)nc2cnc(Oc3cccc(NC(=O)c4ccc(OCCN5CCOCC5)cc4)c3)cc21 + N=C(N)NC(=N)NCCc1ccccc1 [Phenformin] (partner 250 µM)
Outline: (§1)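 Cells from lung cancer lines were seeded into 1536-well plates and, one day later, dosed by pin tool. Treatments were either a single drug or a fixed dose of an anchor drug with five library-drug doses (not always all listed) in √10 steps. After 5 days, nuclei were stained in a one-step fixation (final 0.05% Triton X-100, 1% formaldehyde, 1 ug/ml Hoechst) and counted on 4× images, and relative viability is the treated-to-vehicle nuclei ratio, as the median of duplicate plates.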

Mirin + Tozasertib = compound: N=C1NC(=O)/C(=C/c2ccc(O)cc2)S1 [Mirin] + Cc1cc(Nc2cc(N3CCN(C)CC3)nc(Sc3ccc(NC(=O)C4CC4)cc3)n2)n[nH]1 [Tozasertib] (partner 0.1 µM)
Outline: as §1

[2] = compound: CCn1c(-c2nonc2N)nc2cnc(Oc3cccc(NC(=O)c4ccc(OCCN5CCOCC5)cc4)c3)cc21 + C[C@@H](Oc1cc(-c2cnn(C3CCNCC3)c2)cnc1N)c1c(Cl)ccc(F)c1Cl [Crizotinib] (partner 1 µM)
Outline: as §1

[3] = compound: CCC1=CN=CN=C1N2CCN(CC2)CC3=NC4=C(N3)C=C(C=C4)C(F)(F)F + N=C(N)NC(=N)NCCc1ccccc1 [Phenformin] (partner 250 µM)
Outline: as §1

Row | Cell Line | relative viability ([1]; first compound 0.04 µM) | relative viability ([1]; first compound 0.1265 µM) | relative viability ([1]; first compound 0.4 µM) | relative viability ([1]; first compound 1.265 µM) | relative viability ([1]; first compound 4 µM) | relative viability (Mirin + Tozasertib; first compound 0.25 µM) | relative viability (Mirin + Tozasertib; first compound 0.7906 µM) | relative viability (Mirin + Tozasertib; first compound 2.5 µM) | relative viability (Mirin + Tozasertib; first compound 7.906 µM) | relative viability (Mirin + Tozasertib; first compound 25 µM) | relative viability ([2]; first compound 0.04 µM) | relative viability ([2]; first compound 0.1265 µM) | relative viability ([2]; first compound 0.4 µM) | relative viability ([2]; first compound 1.265 µM) | relative viability ([2]; first compound 4 µM) | relative viability ([3]; first compound 0.04 µM) | relative viability ([3]; first compound 0.1265 µM) | relative viability ([3]; first compound 0.4 µM) | relative viability ([3]; first compound 1.265 µM) | relative viability ([3]; first compound 4 µM)
1 | PC-3 [JPC-3] | 0.5 | 0.488 | 0.478 | 0.465 | 0.459 | 0.905 | 0.978 | 0.893 | 0.879 | 0.899 | 0.961 | 0.96 | 1.04 | 0.967 | 0.939 | 0.456 | 0.456 | 0.457 | 0.505 | 0.479
2 | NCI-H1650 | 0.47 | 0.382 | 0.229 | 0.397 | 0.369 | 0.379 | 0.483 | 0.421 | 0.325 | 0.277 | 1.12 | 0.957 | 0.897 | 0.761 | 0.711 | 0.484 | 0.519 | 0.392 |  | 0.416
3 | NCI-H838 | 0.501 | 0.285 | 0.201 | 0.227 | 0.222 | 0.265 | 0.303 | 0.213 | 0.23 | 0.203 | 0.725 | 0.427 | 0.466 | 0.272 | 0.228 | 0.575 | 0.507 | 0.536 | 0.434 | 0.596
4 | COR-L23 | 0.451 | 0.285 | 0.185 | 0.155 | 0.13 | 0.162 | 0.213 | 0.17 | 0.15 | 0.132 | 0.598 | 0.341 | 0.329 | 0.133 | 0.107 | 0.387 | 0.411 | 0.473 | 0.409 | 0.521
5 | ChaGo-K-1 | 0.599 | 0.413 | 0.306 | 0.351 | 0.398 | 0.234 | 0.222 | 0.241 | 0.215 | 0.171 | 1.31 | 1.04 | 0.96 |  | 0.633 | 0.462 | 0.5 | 0.409 | 0.443 | 0.482
6 | HOP-62 | 0.739 | 0.686 | 0.55 | 0.357 | 0.368 | 0.367 | 0.381 | 0.357 | 0.257 | 0.324 | 0.972 | 0.86 | 0.951 | 0.931 | 0.755 | 0.47 | 0.664 | 0.655 | 0.653 | 0.616
7 | NCI-H1915 | 0.38 | 0.355 | 0.285 | 0.188 | 0.169 | 0.44 |  | 0.413 | 0.35 | 0.289 | 1.09 | 0.899 | 0.868 | 0.93 | 0.86 | 0.361 | 0.362 | 0.376 | 0.344 | 0.358
8 | BEN | 0.29 | 0.275 | 0.21 | 0.235 | 0.228 | 0.438 | 0.584 | 0.523 | 0.553 | 0.456 | 0.818 | 0.869 | 0.631 | 0.318 | 0.303 | 0.254 | 0.255 | 0.229 | 0.253 | 0.265
9 | NCI-H1437 | 0.321 | 0.312 | 0.239 | 0.295 | 0.288 | 0.451 | 0.407 | 0.372 | 0.343 | 0.377 | 0.788 | 0.949 | 0.749 | 0.703 | 0.666 | 0.343 | 0.295 | 0.302 | 0.255 | 0.317
10 | EMC-BAC-2 | 0.502 | 0.387 | 0.259 | 0.176 | 0.178 | 0.274 | 0.28 | 0.284 | 0.228 | 0.162 | 0.904 | 0.823 | 0.789 | 0.733 | 0.701 | 0.515 | 0.506 | 0.523 |  | 0.557
11 | NCI-H2087 | 0.598 | 0.458 | 0.474 | 0.432 | 0.372 | 0.26 | 0.248 | 0.292 | 0.22 | 0.19 |  | 0.591 | 0.678 | 0.522 | 0.336 | 0.499 | 0.465 | 0.448 | 0.467 | 0.496
12 | NCI-H650 | 0.485 | 0.381 | 0.258 | 0.246 | 0.292 | 0.684 | 0.557 | 0.707 |  | 0.51 | 0.838 | 0.758 | 0.432 | 0.388 | 0.339 | 0.442 | 0.418 | 0.466 | 0.454 | 0.464
13 | LXF-289 | 0.554 | 0.526 | 0.361 | 0.334 | 0.341 | 0.214 | 0.241 | 0.156 | 0.128 | 0.151 | 0.839 | 0.871 | 0.821 | 0.598 | 0.549 | 0.54 | 0.461 | 0.547 | 0.483 | 0.529
14 | LOU-NH91 | 0.797 | 0.605 | 0.465 | 0.389 | 0.404 | 0.661 | 0.614 | 0.673 | 0.465 | 0.42 | 0.756 | 0.534 | 0.637 | 0.488 | 0.497 | 0.605 | 0.692 | 0.685 | 0.669 | 0.714
15 | NCI-H2347 | 0.521 | 0.784 | 0.465 | 0.312 | 0.403 | 0.58 | 0.457 | 0.681 | 0.587 | 0.439 | 0.602 | 0.69 | 0.589 | 0.484 | 0.39 | 0.314 | 0.397 | 0.498 | 0.243 | 0.304
16 | NCI-H1993 | 0.66 | 0.562 | 0.546 | 0.565 | 0.508 | 0.611 |  | 0.605 | 0.52 | 0.576 | 0.991 | 0.864 |  | 0.75 | 0.742 | 0.551 | 0.461 | 0.496 | 0.537 | 0.579
17 | HCC-827 | 0.489 | 0.484 | 0.439 | 0.414 | 0.399 | 0.412 | 0.39 | 0.421 | 0.384 | 0.426 | 0.913 | 0.903 | 0.951 | 0.892 | 0.803 | 0.453 | 0.357 | 0.406 |  | 0.404
18 | NCI-H661 | 0.258 | 0.253 | 0.203 | 0.23 | 0.195 | 0.351 | 0.367 | 0.344 | 0.337 | 0.327 | 0.993 | 1.05 | 1.13 | 0.694 | 0.86 | 0.28 | 0.259 | 0.301 | 0.263 | 0.313
19 | CAL-12T | 0.686 | 0.596 | 0.48 | 0.418 | 0.388 | 0.282 |  | 0.317 | 0.283 | 0.222 | 0.74 | 0.5 | 0.371 | 0.298 | 0.215 | 0.551 | 0.616 | 0.626 | 0.548 | 0.643
20 | PC-14 | 0.962 | 0.556 | 0.549 | 0.258 | 0.457 | 0.587 | 0.581 | 0.589 | 0.599 | 0.566 | 0.874 | 0.884 | 0.87 | 0.683 | 0.7 | 0.463 | 0.472 | 0.561 | 0.669 | 0.567
21 | NCI-H23 | 0.879 | 0.798 | 0.662 | 0.61 | 0.532 | 0.496 |  | 0.427 | 0.288 | 0.256 | 0.812 | 0.82 |  | 0.439 | 0.305 | 0.703 | 0.742 | 0.768 | 0.73 | 0.792
22 | SK-LU-1 | 0.488 | 0.409 | 0.333 | 0.251 | 0.238 | 0.332 | 0.325 | 0.346 | 0.213 | 0.209 | 1.12 | 0.744 | 0.61 | 0.46 | 0.355 | 0.523 | 0.534 | 0.509 | 0.385 | 0.579
23 | NCI-H727 | 0.793 | 0.694 | 0.499 | 0.588 | 0.529 | 0.705 | 0.629 | 0.661 | 0.543 | 0.553 | 1.16 | 1.04 | 1.14 | 0.835 | 0.823 | 0.505 | 0.541 | 0.439 |  | 0.671
24 | HCC-366 | 0.694 | 0.665 | 0.412 | 0.0542 | 0.0311 | 0.15 |  | 0.602 | 0.0813 | 0.103 | 0.738 | 0.537 | 0.575 | 0.0457 | 0.0363 | 0.539 | 0.64 | 0.57 | 0.432 | 0.536
25 | SW 1573 | 0.513 | 0.345 | 0.344 | 0.282 | 0.154 | 0.181 | 0.195 | 0.234 | 0.188 | 0.108 | 0.874 | 0.704 | 0.707 | 0.519 | 0.391 | 0.405 | 0.415 | 0.3 | 0.406 | 0.357
26 | HCC-44 | 0.249 | 0.216 | 0.113 | 0.096 | 0.074 | 1.06 | 0.433 | 0.93 | 0.824 | 0.404 | 0.784 | 1.03 | 0.83 | 0.411 | 0.248 | 0.176 | 0.208 | 0.266 | 0.28 | 0.247
27 | A-427 | 0.471 | 0.377 | 0.227 | 0.167 | 0.114 | 0.196 |  | 0.202 | 0.143 | 0.158 | 0.966 | 1.08 | 0.846 | 0.998 | 0.879 | 0.3 | 0.292 | 0.225 | 0.234 | 0.224
